Assay results published in paper PMC6268586, “Effect of Wine and Vinegar Processing of Rhizoma Corydalis on the Tissue Distribution of Tetrahydropalmatine, Protopine and Dehydrocorydaline in Rats” (Molecules, 2012).
Read-outs that look alike come from different tables or passages of the source.

Assay: Tissue distribution of THP, DHC and protopine in rat tissues after gastric gavage administration (HPLC-UV, non-compartmental analysis)
Type: in vivo, Wistar male rats
Settings: male, Wistar, po, 4.52 mg/kg; for AUC(0-t): read-out: AUC0–24 h of protopine; for Cmax: read-out: Cmax of protopine; for MRT: read-out: MRT of protopine; for Tmax: read-out: Tmax of protopine
Experimental: The experimental protocol was approved by the University's Animal Ethics Committee. […] Rats had unlimited access to water. Standard food was given until 12 h before the experiments. Rhizoma Corydalis was processed according to Pharmacopoeia of Chinese Medicine and National Guideline of Traditional Chinese Medicinal Plants Processing. Briefly, fresh Rhizoma Corydalis was boiled in water till the pith turn light brown color. Cooked rhizome was sliced into pieces (4 mm, diameter) and dried at 25 °C. Dried slices were mixed with edible vinegar (100:20, rhizome/vinegar, w/v) or yellow wine (100:10, rhizome/wine, w/v) and the slices allowed to completely absorb the vinegar or wine. The soaked slices were then stir-fried in a metallic pan over a low flame till they were completely dry. The processed Rhizoma Corydalis was added with 70% ethanol (1:30 w/v) and sonicated for 1 h at room temperature. The extract was then concentrated to remove the ethanol residue and stored at 4 °C for further use. […] The ethanol extract of the unprocessed Rhizoma Corydalis and THP, DHC and protopine pure compound were used as the controls. Three hundred and sixty healthy rats were used in total and are divided into six groups (Group 1-6, sixty rats per group). Drugs were administrated by gastric gavage method. In order to keep the dose of THP, DHC and protopine constant in each group, the amount of ethanol extract of Rhizoma Corydalis administrated was normalized based on the dose of protopine pure compound used. The dose of THP and DHC pure compound administrated was same with that in the ethanol extract of Rhizoma Corydalis. The details were listed below. […] Rats were administrated with the 70% ethanol extract of unprocessed Rhizoma Corydalis at a dose of 17.75 g extract/kg body weight. […] Rats received the extract of vinegar-processed Rhizoma Corydalis at a dose of 15 g extract/kg rat body weight. Group 3: Rats were administrated with the extract of wine processed Rhizoma Corydalis at a dose of 15.78 g extract/kg body weight. […] Rats received THP pure compound at a dose of 6.45 mg/kg body weight. Group 6: Rats were administrated 26.10 mg of DHC pure compound/kg body weight. […] Brian tissue was further dissected into six parts: cerebrum, cerebellum, diencephalons, brain stem, hippocampus and striatum. All the tissue samples were rinsed with ice-old saline and stored at -20 °C until extraction. Tissue samples were homogenized in three volumes of ice-cold biological saline and centrifuged for 10 min at 10,000 g and 4 °C. An aliquot of the supernatant (0.5 mL) was collected. Liquid-liquid extraction was used to extract THP, DHC and protopine. One hundred microliter of 1.0 μg/mL nuciferin (internal standard) was mixed with 0.5 mL aliquots of the supernatant. […] The supernatant was evaporated completely under the nitrogen stream in a 60 °C water bath. The residue was redissolved in 100 μL of methanol. A CoMetro HPLC system (CoMetro Technology Ltd, South […], NJ, USA) with 6000 PVW detector UV-VIS detector was used. […] Ltd., Liaoning, China). Other chromatographic conditions were: column temperature, 35 °C; mobile phase, acetonitrile-0.1% phosphoric acid (pH 3.0) (30:70 v/v); flow rate, 1 mL/min; wavelength, 280 nm. Pharmacokinetic parameters were estimated by non-compartmental analysis using Equiv Test/PK (Statistical Solutions Ltd., Saugus, MA, USA). The maximum concentration (Cmax) and the time to reach the maximum concentration (Tmax) were directly obtained from the observed value. All data were represented as mean ± SD. Comparison of values between groups was performed using one-way ANOVA followed by Tukey's test for comparisons among four groups.

[1] = diencephalon, rat diencephalons

What does the source list for `CN1CCc2cc3c(cc2C(=O)Cc2ccc4c(c2C1)OCO4)OCO3` [protopine]?
AUC(0-t) [1]: 3180 ± 70 ng·h/mL; Cmax [1]: 1310 ± 270 ng/mL; MRT [1]: 4.89 ± 0.01 h; Tmax [1]: 2.07 ± 0.21 h; AUC(0-t) (rat brain stem): 2020 ± 420 ng·h/mL; Cmax (rat brain stem): 820 ± 170 ng/mL; MRT (rat brain stem): 3.9 ± 0.14 h; Tmax (rat brain stem): 2.2 ± 0.01 h; AUC(0-t) (rat cerebellum): 3800 ± 830 ng·h/mL; Cmax (rat cerebellum): 1560 ± 320 ng/mL; MRT (rat cerebellum): 4.86 ± 0.08 h; Tmax (rat cerebellum): 2.08 ± 0.01 h; AUC(0-t) (rat cerebrum): 3650 ± 780 ng·h/mL; Cmax (rat cerebrum): 1350 ± 270 ng/mL; MRT (rat cerebrum): 3.93 ± 0.06 h; Tmax (rat cerebrum): 2.1 ± 0.8 h; AUC(0-t) (rat heart): 6230 ± 1560 ng·h/mL; Cmax (rat heart): 1500 ± 450 ng/mL; MRT (rat heart): 5.93 ± 0.02 h; Tmax (rat heart): 5.28 ± 0.42 h; AUC(0-t) (rat hippocampus): 3660 ± 810 ng·h/mL; Cmax (rat hippocampus): 1560 ± 310 ng/mL; MRT (rat hippocampus): 5.23 ± 0.1 h; Tmax (rat hippocampus): 2.09 ± 0.04 h; AUC(0-t) (rat kidney): 13400 ± 2650 ng·h/mL; Cmax (rat kidney): 4420 ± 1310 ng/mL; MRT (rat kidney): 5.53 ± 0.04 h; Tmax (rat kidney): 5.13 ± 0.04 h; AUC(0-t) (rat liver): 27800 ± 6980 ng·h/mL; Cmax (rat liver): 6670 ± 1970 ng/mL; MRT (rat liver): 5.69 ± 0.03 h; Tmax (rat liver): 5.09 ± 0.68 h; AUC(0-t) (rat lung): 50200 ± 12500 ng·h/mL; Cmax (rat lung): 11200 ± 3310 ng/mL; MRT (rat lung): 5.85 ± 0.04 h; Tmax (rat lung): 5.22 ± 0.47 h; AUC(0-t) (rat spleen): 35000 ± 8180 ng·h/mL; Cmax (rat spleen): 7420 ± 2220 ng/mL; MRT (rat spleen): 5.65 ± 0.03 h; Tmax (rat spleen): 5.22 ± 0.05 h; AUC(0-t) (rat striatum): 6420 ± 1520 ng·h/mL; Cmax (rat striatum): 1950 ± 400 ng/mL; MRT (rat striatum): 6.57 ± 0.43 h; Tmax (rat striatum): 2.07 ± 0.08 h
